Test results from PubChem BioAssay AID1963858 (Molecular Pharmacology Branch, DTP, NCI, 2024).

System: HOP-62 multicell spheroids with HUVEC/MSC, viability
Experiment: Anticancer human tumor HOP-62 cell line growth inhibition [KRAS2];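 further: viability read after a week of compound exposure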;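 on viability, T/C: 100% = DMSO vehicle-treated spheroids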
Settings: for IC50: curve of first compound; for viability, T/C: stronger effect = lower value
Outline: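 KRAS-mutant tumor cells were grown as spheroids with HUVEC endothelial cells and human MSCs as stroma. Targeted agents were tested alone and with KRAS pathway inhibitors. Doses started at or near clinical Cmax, or 10 microM, descending half-log.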

[1] = second compound 0.1 µM, first compound 0.0316 µM
[2] = second compound 0.1 µM, first compound 0.1 µM
[3] = second compound 0.1 µM, first compound 0.316 µM
[4] = second compound 0.1 µM, first compound 1 µM
[5] = second compound 0.1 µM, first compound 3.16 µM
[6] = second compound 0.316 µM, first compound 0.0316 µM
[7] = second compound 0.316 µM, first compound 0.1 µM
[8] = second compound 0.316 µM, first compound 0.316 µM
[9] = second compound 0.316 µM, first compound 1 µM
[10] = second compound 0.316 µM, first compound 3.16 µM
[11] = second compound 1 µM, first compound 0.0316 µM
[12] = second compound 1 µM, first compound 0.1 µM
[13] = second compound 1 µM, first compound 0.316 µM
[14] = second compound 1 µM, first compound 1 µM
[15] = second compound 1 µM, first compound 3.16 µM
[16] = second compound 3.16 µM, first compound 0.0316 µM
[17] = second compound 3.16 µM, first compound 0.1 µM
[18] = second compound 3.16 µM, first compound 0.316 µM
[19] = second compound 3.16 µM, first compound 1 µM
[20] = second compound 3.16 µM, first compound 3.16 µM
[21] = second compound 10 µM, first compound 0.0316 µM
[22] = second compound 10 µM, first compound 0.1 µM
[23] = second compound 10 µM, first compound 0.316 µM
[24] = second compound 10 µM, first compound 1 µM
[25] = second compound 10 µM, first compound 3.16 µM
[26] = second compound 0.1 µM, first compound 10 µM
[27] = second compound 0.316 µM, first compound 10 µM
[28] = second compound 1 µM, first compound 10 µM
[29] = second compound 3.16 µM, first compound 10 µM
[30] = second compound 10 µM, first compound 10 µM

| Structure (SMILES) | IC50 (second compound 0.1 µM) [nM] | IC50 (second compound 0.316 µM) [nM] | IC50 (second compound 1 µM) [nM] | IC50 (second compound 3.16 µM) [nM] | IC50 (second compound 10 µM) [nM] | viability, T/C [1] [%] | viability, T/C [2] [%] | viability, T/C [3] [%] | viability, T/C [4] [%] | viability, T/C [5] [%] | viability, T/C [6] [%] | viability, T/C [7] [%] | viability, T/C [8] [%] | viability, T/C [9] [%] | viability, T/C [10] [%] | viability, T/C [11] [%] | viability, T/C [12] [%] | viability, T/C [13] [%] | viability, T/C [14] [%] | viability, T/C [15] [%] | also measured |
| --- | --- | --- | --- | --- | --- | --- | --- | --- | --- | --- | --- | --- | --- | --- | --- | --- | --- | --- | --- | --- | --- |
| CC1COCCN1c1cc(-c2ccnn2C)c2ccnc(-c3ccn[nH]3)c2n1 (stereo not given) + COc1cc2nc(C)nc(NC(C)c3cc(N)cc(C(F)(F)F)c3)c2cc1OC1CCOC1 | < 10 | 68.6 | 54.2 | 22.8 | 10.9 | 6.78 | 7.26 | 6.53 | 8.4 | 10.7 | 83.5 | 33.9 | 16.5 | 13.4 | 14.4 | 65.8 | 31.4 | 19.6 | 12.5 | 11.2 | viability, T/C (second compound 0.1 µM, first compound 0.01 µM): 8.83%; viability, T/C (second compound 0.316 µM, first compound 0.01 µM): 125%; viability, T/C (second compound 1 µM, first compound 0.01 µM): 120%; viability, T/C (second compound 3.16 µM, first compound 0.01 µM): 77.4%; viability, T/C [16]: 38.2%; viability, T/C [17]: 22.9%; viability, T/C [18]: 13.9%; viability, T/C [19]: 9.69%; viability, T/C [20]: 10.8%; viability, T/C (second compound 10 µM, first compound 0.01 µM): 52.1%; viability, T/C [21]: 36%; viability, T/C [22]: 27.4%; viability, T/C [23]: 22.3%; viability, T/C [24]: 15.8%; viability, T/C [25]: 12.9% |
| CC1OCC2(CCN(c3cnc(Sc4ccnc(N)c4Cl)c(N)n3)CC2)C1N (stereo not given) + COc1cc2nc(C)nc(NC(C)c3cc(N)cc(C(F)(F)F)c3)c2cc1OC1CCOC1 | > 10000 | > 10000 | 1220 | 510 | 51.9 | 89.6 | 88.9 | 79.8 | 66 | 59.5 | 98.4 | 96.1 | 76.2 | 68.9 | 55.5 | 99.4 | 77.9 | 61.2 | 53.6 | 41.8 | viability, T/C [26]: 59.5%; viability, T/C [27]: 52.8%; viability, T/C [28]: 40.3%; viability, T/C [16]: 82%; viability, T/C [17]: 73.8%; viability, T/C [18]: 59.4%; viability, T/C [19]: 38.4%; viability, T/C [20]: 25.7%; viability, T/C [29]: 31.1%; viability, T/C [21]: 58%; viability, T/C [22]: 40.1%; viability, T/C [23]: 26.9%; viability, T/C [24]: 23.7%; viability, T/C [25]: 20.3%; viability, T/C [30]: 18.6% |
| Cn1nccc1Nc1nccc(-c2cc3c(s2)C(C)(C)N(CCN2CCOCC2)C3=O)n1 + COc1cc2nc(C)nc(NC(C)c3cc(N)cc(C(F)(F)F)c3)c2cc1OC1CCOC1 | 795 | 801 | 769 | 389 | 189 | 107 | 103 | 76.2 | 44.8 | 25.2 | 106 | 98.6 | 77.9 | 45 | 20.6 | 101 | 88.3 | 67.9 | 48 | 22.1 | viability, T/C [26]: 25.8%; viability, T/C [27]: 22.8%; viability, T/C [28]: 20.9%; viability, T/C [16]: 93.8%; viability, T/C [17]: 78.7%; viability, T/C [18]: 54.2%; viability, T/C [19]: 33.1%; viability, T/C [20]: 22%; viability, T/C [29]: 22.3%; viability, T/C [21]: 66.7%; viability, T/C [22]: 60.4%; viability, T/C [23]: 41.6%; viability, T/C [24]: 28.2%; viability, T/C [25]: 25.1%; viability, T/C [30]: 24% |
